We go through one molecule from publication PMC11952367 (bioRxiv, 2025).

What is called IC50 is the concentration that gives 50% inhibition. Read a low IC50 as greater potency.

The target in assay [1] is T1, ΔC-TWIK-2 (Homo sapiens, UniProt Q9Y257).
T1 sequence (Q9Y257 1-276): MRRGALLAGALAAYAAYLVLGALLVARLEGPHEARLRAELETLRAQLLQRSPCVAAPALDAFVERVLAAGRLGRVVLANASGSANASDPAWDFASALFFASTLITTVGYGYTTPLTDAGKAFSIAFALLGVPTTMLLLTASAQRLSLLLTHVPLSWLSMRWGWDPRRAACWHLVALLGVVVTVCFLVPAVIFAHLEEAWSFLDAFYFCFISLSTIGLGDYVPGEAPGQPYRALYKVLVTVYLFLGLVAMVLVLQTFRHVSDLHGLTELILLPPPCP
Put plainly: automated whole-cell patch clamp. Type of assay: cell-based. Background: In patch-clamp work, channel activity is measured electrically.

Assay [2] addresses T2, TWIK-2 (Homo sapiens, UniProt Q9Y257).
T2 sequence (Q9Y257 1-313): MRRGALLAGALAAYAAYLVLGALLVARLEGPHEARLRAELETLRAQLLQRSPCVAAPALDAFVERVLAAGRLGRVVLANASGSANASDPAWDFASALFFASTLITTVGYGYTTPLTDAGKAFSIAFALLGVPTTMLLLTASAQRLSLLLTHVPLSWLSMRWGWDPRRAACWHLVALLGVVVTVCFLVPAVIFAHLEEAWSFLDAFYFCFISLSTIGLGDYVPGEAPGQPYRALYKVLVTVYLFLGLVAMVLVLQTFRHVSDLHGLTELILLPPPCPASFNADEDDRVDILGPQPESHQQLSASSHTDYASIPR
Put plainly: automated whole-cell patch clamp, HEK293 GnTI- cells. Type of assay: cell-based. The conditions noted are these: inhibition; voltage step to +60 mV from holding -90 mV.

As to `COc1ccccc1C(=O)Nc1cccc(NC(=O)c2cccc(C)c2)c1` [ML365], in assay [1], the “percentage inhibition at maximum drug concentration” value is reported as “in ΔC-TWIK-2, we see a significant reduction in percentage inhibition at maximum drug concentration”. Moreover, in assay [2], the half-maximal inhibitory concentration (IC50) was 1.5 µM.
